Values joined by “and” are separate entries in the source; they are usually repeats but may differ in a detail not shown here. Equal values may be shown once. Inconclusive results and toxic doses are left out.

The experiment relates to P388 leukemia ip, CD2F1 mice, survival T/C. Nature of the experiment: NCI In Vivo Anticancer Drug Screen. Data for tumor model P388 Leukemia (intraperitoneal) in CD2F1 (CDF1) mice. The conditions noted are these: endpoint: median survival time, higher = longer survival. Summed up:
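Mice carrying the transplanted tumor received test compound or vehicle. Survival was recorded in each group, and the value is the treated-group measurement divided by that of the vehicle-treated control group.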

[1] abbreviates: dose: 12.5 mg/kg/injection, schedule: Q01DX009 (ip), vehicle: saline with Tween-80.
The mark [2] stands for this setting: dose: 50.0 mg/kg/injection, schedule: Q01DX009 (ip), vehicle: Klucel (hydroxypropylcellulose) (HPC).
[3] abbreviates: dose: 100.0 mg/kg/injection, schedule: Q01DX009 (ip), vehicle: Klucel (hydroxypropylcellulose) (HPC).
The mark [4] stands for this setting: dose: 50.0 mg/kg/injection, schedule: Q01DX005 (ip), vehicle: saline with Tween-80.
The mark [5] stands for this setting: dose: 100.0 mg/kg/injection, schedule: Q01DX005 (ip), vehicle: saline with Tween-80.
Where [6] appears, read: dose: 200.0 mg/kg/injection, schedule: Q01DX005 (ip), vehicle: saline with Tween-80.
The mark [7] stands for this setting: dose: 50.0 mg/kg/injection, schedule: Q01DX009 (ip), vehicle: saline.

For `O=C(Nc1cccc(Cl)c1)c1cc(N=Nc2ccc([N+](=O)[O-])cc2Cl)ccc1O`, the T/C is 104 % of control (dose: 12.5 mg/kg/injection, schedule: Q01DX009 (ip), vehicle: Klucel (hydroxypropylcellulose) (HPC)); 105 % of control under setting [1]; 113 % of control (dose: 25.0 mg/kg/injection, schedule: Q01DX009 (ip), vehicle: Klucel (hydroxypropylcellulose) (HPC)); 107 % of control (dose: 25.0 mg/kg/injection, schedule: Q04DX003 (ip), vehicle: Klucel (hydroxypropylcellulose) (HPC)); 113 % of control under setting [2]; 107 % of control (dose: 50.0 mg/kg/injection, schedule: Q04DX003 (ip), vehicle: Klucel (hydroxypropylcellulose) (HPC)). Also, the T/C under setting [3] is 118 % of control; the T/C (dose: 100.0 mg/kg/injection, schedule: Q04DX003 (ip), vehicle: Klucel (hydroxypropylcellulose) (HPC)) is 115 % of control; the T/C (dose: 200.0 mg/kg/injection, schedule: Q04DX003 (ip), vehicle: Klucel (hydroxypropylcellulose) (HPC)) is 115 % of control.
Turning to `O=C1C=CC2(CC(O)OC3=C2C(=O)c2oc4cc(O)c(O)cc4c2C3=O)O1` (stereo not given), the T/C is 102 % of control (dose: 10.0 mg/kg/injection, schedule: Q01DX009 (ip), vehicle: Klucel (hydroxypropylcellulose) (HPC)); 109 % of control (dose: 20.0 mg/kg/injection, schedule: Q01DX009 (ip), vehicle: Klucel (hydroxypropylcellulose) (HPC)); 105 % of control (dose: 40.0 mg/kg/injection, schedule: Q01DX009 (ip), vehicle: Klucel (hydroxypropylcellulose) (HPC)); 111 % of control (dose: 80.0 mg/kg/injection, schedule: Q01DX009 (ip), vehicle: Klucel (hydroxypropylcellulose) (HPC)).
`Fc1ccc(CSC(=S)Nc2cccc(C(F)(F)F)c2)cc1`: the T/C runs as follows: (dose: 50.0 mg/kg/injection, schedule: Q01DX009 (ip), vehicle: suspension in saline) 97 % of control; (dose: 100.0 mg/kg/injection, schedule: Q01DX009 (ip), vehicle: suspension in saline) 90 % of control.
As to `COCc1ccc2c(c1)C(O)NC(=O)O2` (stereo not given), the T/C was 102 % of control under setting [4]; 107 % of control under setting [5]; 109 % of control under setting [6]; 117 % of control (dose: 400.0 mg/kg/injection, schedule: Q01DX005 (ip), vehicle: saline with Tween-80).
As to `OC1OC2COC(c3ccccc3)OC2C(O)C1O` (stereo not given), the T/C (dose: 25.0 mg/kg/injection, schedule: Q01DX005 (ip), vehicle: water) is 100 % of control; the T/C (dose: 50.0 mg/kg/injection, schedule: Q01DX005 (ip), vehicle: water) is 100 % of control; the T/C (dose: 100.0 mg/kg/injection, schedule: Q01DX005 (ip), vehicle: water) is 100 % of control; the T/C (dose: 200.0 mg/kg/injection, schedule: Q01DX005 (ip), vehicle: water) was 101 % of control; the T/C (dose: 400.0 mg/kg/injection, schedule: Q01DX005 (ip), vehicle: water) is 107 % of control; the T/C (dose: 800.0 mg/kg/injection, schedule: Q01DX005 (ip), vehicle: water) is 95 % of control.
As to `CCCC[As](CCCC)SC1CC(OC(=O)c2ccccc2)C(OC(=O)c2ccccc2)C(COC(=O)c2ccccc2)O1` (stereo not given), the T/C runs as follows: (dose: 6.25 mg/kg/injection, schedule: Q01DX009 (ip), vehicle: saline + alcohol) 108 % of control; (dose: 12.5 mg/kg/injection, schedule: Q01DX009 (ip), vehicle: saline + alcohol) 95 % of control; (dose: 25.0 mg/kg/injection, schedule: Q01DX009 (ip), vehicle: saline + alcohol) 105 % of control; (dose: 50.0 mg/kg/injection, schedule: Q01DX009 (ip), vehicle: saline + alcohol) 100 % of control.
For the compound `CN(C)C(=S)/N=c1\ss/c(=N/C(=S)N(C)C)n1-c1ccc([N+](=O)[O-])cc1`, the T/C (dose: 6.25 mg/kg/injection, schedule: Q01DX009 (ip), vehicle: saline with Tween-80) is 102 % of control; the T/C under setting [1] was 103 % of control; the T/C (dose: 25.0 mg/kg/injection, schedule: Q01DX009 (ip), vehicle: saline with Tween-80) is 103 % of control.
For `Cc1ccc(C(=O)OC(C(=O)O)C(OC(=O)c2ccc(C)cc2)C(=O)O)cc1` (stereo not given) (tested in a mixture with another compound), the T/C by setting is: (dose: 5.25 mg/kg/injection, schedule: Q01DX005 (ip), vehicle: Klucel (hydroxypropylcellulose) (HPC)) 105 % of control; (dose: 10.5 mg/kg/injection, schedule: Q01DX005 (ip), vehicle: Klucel (hydroxypropylcellulose) (HPC)) 107 % of control; (dose: 21.0 mg/kg/injection, schedule: Q01DX005 (ip), vehicle: Klucel (hydroxypropylcellulose) (HPC)) 105 % of control; (dose: 42.0 mg/kg/injection, schedule: Q01DX005 (ip), vehicle: Klucel (hydroxypropylcellulose) (HPC)) 100 % of control.
With `CC1CC1(C1C=CCCC1)C1C=CCCC1` (stereo not given), the T/C is, setting by setting: under setting [4], 100 % of control; under setting [5], 100 % of control; under setting [6], 108 % of control.
For the compound `Cc1cnc(C=O)c2cccc([N+](=O)[O-])c12`, the T/C reads like this: under setting [2], 105 % of control; under setting [3], 112 % of control.
As to `Cn1c2ccccc2c2cnn3cnnc3c21`, the T/C reads like this: (dose: 50.0 mg/kg/injection, schedule: Q01DX001 (ip), vehicle: Klucel (hydroxypropylcellulose) (HPC)) 91 % of control; (dose: 100.0 mg/kg/injection, schedule: Q01DX001 (ip), vehicle: Klucel (hydroxypropylcellulose) (HPC)) 88 % of control; (dose: 200.0 mg/kg/injection, schedule: Q01DX001 (ip), vehicle: Klucel (hydroxypropylcellulose) (HPC)) 96 % of control.
As to `CN(C)CCC1C2CC3CC(C2)CC1C3` (stereo not given), the T/C runs as follows: under setting [7], 94 % of control; (dose: 100.0 mg/kg/injection, schedule: Q01DX009 (ip), vehicle: saline) 94 % of control.
Turning to `CC(=O)OC1C(CO)OC2C1Oc1nc(=N)c(F)cn12` (stereo not given), the T/C is 116 % of control (dose: 0.39 mg/kg/injection, schedule: Q01DX009 (ip), vehicle: saline with Tween-80); 160 % of control (dose: 1.56 mg/kg/injection, schedule: Q01DX009 (ip), vehicle: saline with Tween-80); 91 % of control (dose: 3.13 mg/kg/injection, schedule: Q01DX009 (ip), vehicle: saline with Tween-80); 101 % of control (dose: 3.13 mg/kg/injection, schedule: Q01DX009 (ip), vehicle: saline); 87 % of control and 88 % of control and 93 % of control (dose: 6.25 mg/kg/injection, schedule: Q01DX009 (ip), vehicle: saline); 117 % of control (dose: 12.5 mg/kg/injection, schedule: Q01DX009 (ip), vehicle: saline). The T/C under setting [7] was 161 % of control.
For the compound `O=C(Nc1ccc(Cl)cc1Cl)c1ccc2c(c1)C(=O)OC2=O`, the T/C (dose: 60.0 mg/kg/injection, schedule: Q01DX005 (ip), vehicle: saline with Tween-80) was 98 % of control; the T/C (dose: 120.0 mg/kg/injection, schedule: Q01DX005 (ip), vehicle: saline with Tween-80) is 89 % of control; the T/C (dose: 240.0 mg/kg/injection, schedule: Q01DX005 (ip), vehicle: saline with Tween-80) is 86 % of control.
Consider `O=C(Nc1ccccc1-c1ccccc1)C(Cl)Cl`, for which the T/C by setting is: under setting [2], 101 % of control; under setting [3], 104 % of control; (dose: 200.0 mg/kg/injection, schedule: Q01DX009 (ip), vehicle: Klucel (hydroxypropylcellulose) (HPC)) 87 % of control; (dose: 400.0 mg/kg/injection, schedule: Q01DX009 (ip), vehicle: Klucel (hydroxypropylcellulose) (HPC)) 100 % of control.
`O=NNc1ccc(Oc2ccc(NN=O)cc2)cc1`: the T/C by setting is: (dose: 3.12 mg/kg/injection, schedule: Q01DX009 (ip), vehicle: water) 96 % of control; (dose: 6.25 mg/kg/injection, schedule: Q01DX009 (ip), vehicle: water) 96 % of control; (dose: 12.5 mg/kg/injection, schedule: Q01DX009 (ip), vehicle: water) 92 % of control; (dose: 25.0 mg/kg/injection, schedule: Q01DX009 (ip), vehicle: water) 100 % of control and 93 % of control; (dose: 50.0 mg/kg/injection, schedule: Q01DX009 (ip), vehicle: water) 100 % of control and 93 % of control; (dose: 100.0 mg/kg/injection, schedule: Q01DX009 (ip), vehicle: water) 91 % of control. The T/C (dose: 200.0 mg/kg/injection, schedule: Q01DX009 (ip), vehicle: water) is 88 % of control.
As to `C=C=C(COC(C)=O)ON1CCOCC1`, the T/C by setting is: (dose: 100.0 mg/kg/injection, schedule: Q01DX001 (ip), vehicle: saline) 99 % of control; (dose: 200.0 mg/kg/injection, schedule: Q01DX001 (ip), vehicle: saline) 103 % of control; (dose: 400.0 mg/kg/injection, schedule: Q01DX001 (ip), vehicle: saline) 100 % of control.
